Test results reported in ChEMBL document CHEMBL1201862, “PubChem BioAssay data set” (2004).
Activity calls are given as the source filed them.

Legend:
[1] = target: T1, Heat shock factor protein 1 (Mus musculus, UniProt P38532); test: enhancement of HSF1-driven luciferase signal – cell-based, NIH3T3, luminescence, dose retest, confirmation (AID 435004); format: functional;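 note: stress induced by proteasome inhibitor MG132 added 30 min after compound; luciferase reporter driven by HSF1 response element in NIH3T3 cells; actives raise luminescence as potentiators of the MG132 stress response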
T1 sequence (P38532 whole entry): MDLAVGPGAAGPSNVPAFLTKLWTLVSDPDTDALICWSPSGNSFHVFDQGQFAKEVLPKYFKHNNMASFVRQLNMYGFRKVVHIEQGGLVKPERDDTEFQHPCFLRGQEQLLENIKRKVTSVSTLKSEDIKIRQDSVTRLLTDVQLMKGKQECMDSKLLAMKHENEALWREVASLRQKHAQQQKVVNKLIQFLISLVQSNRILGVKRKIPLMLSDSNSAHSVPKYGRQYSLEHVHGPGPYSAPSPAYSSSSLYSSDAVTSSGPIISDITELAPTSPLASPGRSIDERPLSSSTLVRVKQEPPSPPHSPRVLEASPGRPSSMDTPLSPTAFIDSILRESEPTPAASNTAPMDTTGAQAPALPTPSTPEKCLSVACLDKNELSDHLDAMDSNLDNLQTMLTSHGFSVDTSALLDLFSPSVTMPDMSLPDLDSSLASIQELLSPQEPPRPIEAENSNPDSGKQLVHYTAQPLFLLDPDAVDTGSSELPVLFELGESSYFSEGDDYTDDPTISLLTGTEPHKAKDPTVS

[2] = target: Cytochrome P450 2C19 (Homo sapiens, UniProt P33261); test: Cytochrome panel assay with activity outcomes. Panel member name: p450-cyp2c19 Compounds with AC50 equal or less than 10 uM are considered active; format: functional
Sequence of Cytochrome P450 2C19 (P33261 whole entry): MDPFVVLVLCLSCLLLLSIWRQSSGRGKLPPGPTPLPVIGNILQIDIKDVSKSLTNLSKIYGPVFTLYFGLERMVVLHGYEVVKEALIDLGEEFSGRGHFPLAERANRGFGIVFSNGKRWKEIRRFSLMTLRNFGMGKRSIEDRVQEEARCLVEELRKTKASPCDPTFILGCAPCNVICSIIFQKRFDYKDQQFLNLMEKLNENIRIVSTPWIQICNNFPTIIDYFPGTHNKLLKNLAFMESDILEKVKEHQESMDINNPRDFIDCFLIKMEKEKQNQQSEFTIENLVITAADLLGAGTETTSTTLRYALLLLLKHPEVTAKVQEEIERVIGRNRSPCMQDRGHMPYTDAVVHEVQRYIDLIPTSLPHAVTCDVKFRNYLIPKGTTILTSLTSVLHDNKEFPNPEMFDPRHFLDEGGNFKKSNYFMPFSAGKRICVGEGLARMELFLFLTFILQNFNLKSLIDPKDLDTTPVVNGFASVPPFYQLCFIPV

[3] = target: Cytochrome P450 3A4 (Homo sapiens, UniProt P08684);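 note: CYP3A4 tested as one member of a cytochrome P450 panel screen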
Sequence of Cytochrome P450 3A4 (P08684 whole entry): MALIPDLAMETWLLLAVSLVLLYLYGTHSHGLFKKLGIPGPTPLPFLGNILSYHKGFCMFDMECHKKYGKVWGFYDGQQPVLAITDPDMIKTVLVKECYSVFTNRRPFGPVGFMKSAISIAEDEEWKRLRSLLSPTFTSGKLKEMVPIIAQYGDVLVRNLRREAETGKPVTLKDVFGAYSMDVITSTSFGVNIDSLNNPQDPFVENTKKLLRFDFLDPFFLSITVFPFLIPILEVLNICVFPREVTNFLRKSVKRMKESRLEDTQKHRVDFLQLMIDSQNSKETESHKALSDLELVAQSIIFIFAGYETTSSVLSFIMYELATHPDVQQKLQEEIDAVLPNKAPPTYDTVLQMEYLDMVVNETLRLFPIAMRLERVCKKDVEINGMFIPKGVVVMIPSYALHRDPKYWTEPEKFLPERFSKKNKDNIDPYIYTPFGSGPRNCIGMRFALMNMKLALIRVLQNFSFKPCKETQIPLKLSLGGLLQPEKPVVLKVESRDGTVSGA

[4] = Luminescence Cell-Based Dose Confirmation HTS to Identify Activators of 5'UTR Stem-Loop Driven Alpha-Synuclein mRNA Translation in H4 Neuroglioblastoma Cells. [Related pubchem assays: 1829 (Project Summary), 1814 (Primary HTS)]; format: functional
[5] = Luminescence Cell-Based Dose Response HTS to Identify Activators of Luciferase Translation or Activity in H4 […] Cells. [Related pubchem assays: 1829 (Project Summary), 1814 (Primary HTS)]; format: functional
[6] = tested on: H4; test: Luminescence Cell-Based Dose Response HTS to Identify Activators of 5'UTR Stem-Loop Driven Prion Protein mRNA Translation in H4 Neuroglioblastoma Cells. [Related pubchem assays: 1829 (Project Summary), 1814 (Primary HTS)]; format: functional; details: Homo sapiens
[7] = viability of uninfected HEp-2 cells – cell-based, HTS, cytotoxicity control for RSV inhibitor project, dose response (AID 2410); format: functional; details: human respiratory syncytial virus

Cc1nc2ncnn2c(C)c1CCC(=O)NCc1ccco1
EC50 [1]: > 260 µM (inactive)
AC50 [2]: inconclusive
AC50 [3]: 10 µM (inconclusive)

O=C(CCCC1=NS(=O)(=O)c2ccccc2N1)N1CCN(c2ccccc2)CC1
EC50 [1]: > 260 µM (inactive)

CCOc1ccc(C(=O)Nc2ccc3c(c2)OCCO3)cc1
EC50 [1]: > 260 µM (inconclusive)

CC(C)(C)NC(=O)NC(=O)CN1CC=C(c2ccccc2)CC1
EC50 [1]: > 260 µM (inactive)

CCc1cc(C=C(Cl)Cl)oc(=O)c1C
EC50 [4]: 6.98 µM (active)
EC50 [5]: 8.12 µM (active)
EC50 [6]: > 120 µM (not active)

Cc1ccc(NC(=O)c2cc(=O)c3ccccc3o2)cc1
EC50 [4]: 1.12 µM (active)
EC50 [5]: 17.9 µM (active)
EC50 [6]: 21.6 µM (active)

O=C(OCC(=O)c1cccs1)C1=COCCO1
EC50 [4]: 15.4 µM (active)
EC50 [5]: 9.36 µM (active)
EC50 [6]: 8.15 µM (active)

Cc1ccc(C(=O)c2c3ccccc3[n+]([O-])n2[C@@H](C)C(N)=O)cc1
EC50 [4]: 6.39 µM (active)
EC50 [5]: 11.2 µM (active)
EC50 [6]: 38 µM (active)

Cc1nnc(Sc2nc3c(c(=O)n(C)c(=O)n3C)n2Cc2ccccc2Cl)s1
EC50 [1]: > 260 µM (inactive)

COc1ccc(CCC(=O)NCCS(=O)(=O)N2CCN(c3ccccc3OC)CC2)cc1
EC50 [4]: > 120 µM (not active)
EC50 [5]: > 120 µM (not active)
EC50 [6]: > 120 µM (not active)

Cc1nn(C)c(=O)n1-c1ccc(OCc2ccccc2)cc1
EC50 [4]: 8.8 µM (active)
EC50 [5]: 49.9 µM (active)
EC50 [6]: 12.9 µM (active)

CCc1cc(=O)oc2c(CNCc3ccccc3F)c(O)c(Cl)cc12
EC50 [1]: > 260 µM (inactive)

Cc1cc2nc(CCN(C(S)=NCC3CCCO3)C3CCCC3)[nH]c2cc1C (configuration not stated)
EC50 [1]: > 260 µM (inactive)

O=C(NCCCN1CCCCC1)c1ccc2c(=O)n(CCc3ccccc3)c(=O)[nH]c2c1
EC50 [4]: > 120 µM (not active)
EC50 [5]: 12.2 µM (active)
EC50 [6]: 93.9 µM (active)

CCOC(=O)C1(Cc2ccc(OC)cc2)CCN(C(=O)c2cc3ccccc3[nH]2)CC1
EC50 [1]: 30.3 µM (active)

[O-][n+]1c2ccccc2c2n1CCCN=C2c1ccc(Cl)cc1
EC50 [4]: 7.98 µM (active)
EC50 [5]: 8.34 µM (active)
EC50 [6]: 41.8 µM (active)

CCN=C(S)N1CCN(S(=O)(=O)c2cccc(C(F)(F)F)c2)CC1
EC50 [1]: > 260 µM (inactive)

Clc1ccc(-c2[nH]nc3c2CCCC3)cc1
CC50 [7]: 37.1 µM (active)
EC50 [4]: 10.4 µM (active)
EC50 [5]: 16.2 µM (active)
EC50 [6]: 54.4 µM (active)

CCOc1ccccc1CN1CCNC(=O)C1CC(=O)NCc1nccn1CC (configuration not stated)
EC50 [1]: > 260 µM (inactive)

CCn1c(SCC(=O)N/N=C/C=C/c2ccco2)nc2ccccc21
EC50 [1]: > 260 µM (inactive)

COc1ccc(/C=N/NC(=O)c2cccnc2)c(C(=O)O)c1OC
EC50 [1]: > 260 µM (inactive)
